Assay results: patent US20210116454A1, “METHODS FOR TREATING A HEMATOLOGICAL CANCER AND THE USE OF COMPANION BIOMARKERS FOR 2-(2,6-DIOXOPIPERIDIN-3-YL)-4-((2-FLUORO-4-((3-MORPHOLINOAZETIDIN-1-YL)METHYL)BENZYL)AMINO)ISOINDOLINE-1,3-DIONE” (CELGENE CORPORATION, priority 2019, published 2021)
pEC50, pIC50: −log10 of the molar value.

Key:
Assay type in all cases: cell-based
SU-DHL-2^CRBN−/− cells = experiment: Western blot time- and concentration-response in cereblon knockout cells
Text: However, Compound 1 had no activity in SU-DHL-2^CRBN−/− cells, indicating the requirement of cereblon for induction of apoptosis by Compound 1 in DLBCL (FIG. 5 C).

SU-DHL-6 = experiment: 5-day viable cell number and apoptosis (7-AAD exclusion/Annexin V flow cytometry); conditions: SU-DHL-6 cells, 5 days
Summary of the method: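 5 d tx, escalating doses, DLBCL lines; viable cells counted; apoptosis via 7-AAD exclusion/Annexin V by flow.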

11 DLBCL cell lines = experiment: Integrated proteomics (TMT-MS) and RNA-Seq profiling; conditions: 0.04 μM; 12, 24 and 48 hours
Experimental: Biomarkers associated with the cytotoxic effects of Compound 1 treatment in DLBCL, such as signaling and regulatory pathways, were determined by integrative network analysis using transcriptomic and proteomic profiling. The approach consisted of a network flow optimization using a knowledge driven backbone network with protein interactions and regulatory associations similar to what was described previously (Basha, Mauer, Simonovsky, Shpringer, & Yeger-Lotem, 2019; Gosline, Spencer, Ursu, & Fraenkel, 2012).
Briefly, differential expression analysis and differential protein abundance analysis at different timepoints were integrated using a model framework. […]
To begin, cell line sensitivity to Compound 1 was determined by flow cytometry for 40 cell line models using DRAQ7 and Annexin V staining to quantify the reduction in proliferation and induction of apoptosis after five days of compound treatment. […] Sensitivity was calculated by calculating the ratio of (AUCapoptosis/AUClive cells), where smaller ratios indicated resistance, and larger ratios indicated sensitivity. […]

[1] = test system: PBMCs from four healthy donors; experiment: Cytokine secretion by anti-CD3 stimulated PBMCs (MSD)
Experimental: Purified PBMCs from four healthy donors were plated on anti-CD3 antibody-coated plates to stimulate T cells and were subsequently treated with either DMSO (control) or Compound 1 at various concentrations for 3, 4, and 7 days. Secretion of cytokines was measured in supernatant fluid from PBMC cultures over time by using mesoscale (MSD) assays. Compound 1 induced IL-2 secretion at all concentrations tested.

[2] = test system: bone marrow CD34+ cells from healthy donors; experiment: Ex vivo maturation of myeloid progenitors to neutrophils (flow cytometry)
Experimental: The effects of Compound 1 on maturation of myeloid progenitors to neutrophils were assessed in ex vivo cultures of bone marrow CD34+ cells from healthy donors and different dosing schedules were evaluated to gain insight into the schedule dependence of these events.
Myeloid differentiation was induced by adding stem cell factor (SCF), FMS-related tyrosine kinase 3 ligand (FLT3-L), and granulocyte colony stimulating factor (G-CSF) to culture media. Cell differentiation in the presence or absence of Compound 1 was evaluated at prespecified time points by flow cytometry as the percentage of cells in 5 subpopulations: (1) hematopoietic stem cells (HSC, CD34+/CD33−/CD11b−); (2) Stage I cells (CD34+/CD33+/CD11b−); (3) Stage II cells (CD34−/CD33+/CD11b−); (4) Stage III cells (CD34−/CD33+/CD11b+) and (5) Stage IV cells (CD34−/CD33−/CD11b+) cells (from immature to mature). Differentiation and viability were monitored during the complete assay every two or three days.
However, the viability of neutrophil precursors exposed to Compound 1 was not affected (FIG. 18).
Recovery of mature neutrophils after Compound 1 exposure was also evaluated in the system.

For O=C1CC[C@H](N2C(=O)c3cccc(NCc4ccc(CN5CC(N6CCOCC6)C5)cc4F)c3C2=O)C(=O)N1 [Compound 1, (S)-2-(2,6-dioxopiperidin-3-yl)-4-((2-fluoro-4-((3-morpholinoazetidin-1-yl)methyl)benzyl)amino)isoindoline-1,3-dione], the “activity in cereblon knockout cells” value (SU-DHL-2^CRBN−/− cells) was “no activity”, the pEC50 (SU-DHL-6; Homo sapiens, 120 h) was 6.34 and the Emax (SU-DHL-6; Homo sapiens, 120 h) was 46.3%. For the same compound, the pIC50 (SU-DHL-6; Homo sapiens, 120 h) was 6.59, the “% Viable Cells AUC” value (SU-DHL-6) was 88.38 and the “% Viable Cells Emax” value (SU-DHL-6) was 5.843%. For the same compound, the “% Viable Cells Sensitivity” value (SU-DHL-6) was “High (highly sensitive to Compound 1 with less than 6% viable cells remaining (Emax) after treatment)”, the “Apoptosis AUC” value (SU-DHL-6) was 421.1 and the “Apoptosis Sensitivity” value (SU-DHL-6) was “High”. The “genes associated with cell cycle and transcription” value (11 DLBCL cell lines) was “global down-regulation”, the “genes associated with interferon signaling, cytokine/chemokine signaling, apoptosis, cell adhesion, cell-cell junction, GPCRs, extracellular matrix” value (11 DLBCL cell lines) was “up-regulation” and the “Interleukin-2 secretion by PBMCs” value ([1]; 0.1 to 100 nM, 3, 4, and 7 days) was “increased”. The “other monitored cytokines (TNFα, IFNγ, IL-4, IL-13, IL-10, and IL-6)” value ([1]; 3, 4, and 7 days) was “Transient or no effect”, the “late-stage maturation of neutrophil progenitors” value ([2]; 14 or 5 days of exposure) was “blocked” and the “Number of Days in Washout Period Required for Recovery to 50% of Stage IV Cells” value (from here on “Number of Days … to 50% of Stage IV Cells”) ([2]; 5 days treatment, 0.1 nM) was 0 days. For the same compound, the “Number of Days … to 50% of Stage IV Cells” value ([2]; 5 days treatment, 1 nM) was 1 days, the “Number of Days … to 50% of Stage IV Cells” value ([2]; 5 days treatment, 10 nM) was 1 days and the “Number of Days … to 50% of Stage IV Cells” value ([2]; 5 days treatment, 1000 nM) was 5 days. For the same compound, the “Number of Days … to 50% of Stage IV Cells” value ([2]; 14 days treatment, 0.1 nM) was 0 days, the “Number of Days … to 50% of Stage IV Cells” value ([2]; 14 days treatment, 1 nM) was 0 days and the “Number of Days … to 50% of Stage IV Cells” value ([2]; 14 days treatment, 100 nM) was 4 days. For the same compound, the “Number of Days … to 50% of Stage IV Cells” value ([2]; 14 days treatment, 1000 nM) was 4 days, the “viability of neutrophil precursors” value ([2]; Annexin V and 7-AAD, 14 or 5 days exposure) was “not affected” and the “recovery of the proportion of mature neutrophils (Stage IV cells) from its nadir” value ([2]; after 1 week without Compound 1) was at least 50%. For the same compound, the “recovery of Stage IV cells relative to Stage IV cell population in the DMSO control” value ([2]; one week without drug, all tested conditions) was “at least 50%”.
